Values after ≈ are worked out from the molar mass of the structure shown.
Molecular target: T1, collagenase
T1 construct: gene colG
Test: fluorometric collagenase inhibitor screening kit
Assay type: biochemical
Settings: 15 min preincubation at 25 °C; kinetic read 60 min at 37 °C; ex 490 / em 520 nm

Cc1cnc(NC(=O)C2=C(O)c3ccccc3S(=O)(=O)N2C)s1 [Meloxicam]
IC50: 38.48 µg/mL (≈ 110 µM)

Reference: article PMC10708113, “Comparative Study of Essential Oils from Different Organs of Syzygium cumini (Pamposia) Based on GC/MS Chemical Profiling and In Vitro Antiaging Activity” (Molecules, 2023)
